These results are taken from patent US12110293B2, “Substituted triazolo quinoxaline derivatives” (GRÜNENTHAL GMBH, priority 2018, dated 2024).

The target in this test is T1, glucocorticoid receptor (Homo sapiens, UniProt P04150).
T1 construct: expressed in transfected cells
T1 sequence (P04150 524-758 limits assumed): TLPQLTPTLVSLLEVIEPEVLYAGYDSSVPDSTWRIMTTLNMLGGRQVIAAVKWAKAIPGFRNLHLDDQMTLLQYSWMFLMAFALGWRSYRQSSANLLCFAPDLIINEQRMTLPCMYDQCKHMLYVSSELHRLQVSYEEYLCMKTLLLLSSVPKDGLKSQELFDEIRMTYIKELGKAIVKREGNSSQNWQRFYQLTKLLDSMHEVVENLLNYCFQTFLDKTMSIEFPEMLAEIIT
Briefly: Agonistic mode of action on the glucocorticoid receptor (CHO-Gal4/GR luciferase reporter cell line). Type of test: cell-based. Conditions: range class observed in the agonistic assay or the antagonistic assay (CHO-Gal4/GR reporter cells); table does not say which mode applies per example. The method in brief: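 Agonism measured as dose-dependent luciferase luminescence (FLIPR Tetra) from a GAL4-UAS reporter driven by GAL4 DBD fused to GR ligand-binding domain in stable CHO cells. Eight half-log doses, 10 μM to 0.003 μM final in 0.5% DMSO, quadruplicate, on cells seeded 24 h earlier at 5000/well; EC50 derived.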

Turning to `Cc1nnc2n1-c1c(cc(OC(F)F)c(-c3cc(F)cc4c3ccn4S(C)(=O)=O)c1F)NC2(C)C` [Example 268, 7-(Difluoro-methoxy)-9-fluoro-8-(6-fluoro-1-methylsulfonyl-1H-indol-4-yl)-1,4,4-trimethyl-5H-[1,2,4]triazolo[4,3-a]quinoxaline], the IC50 or EC50 (agonist or antagonist mode not specified) fell in the range of 1000 to 15000 nM.
Consider `Cc1nnc2n1-c1c(cc(F)c(-c3cc(F)cc4c3cnn4S(C)(=O)=O)c1F)NC2(C)C` [Example 276, 7,9-Difluoro-8-(6-fluoro-1-methylsulfonyl-1H-indazol-4-yl)-1,4,4-trimethyl-5H-[1,2,4]triazolo [4,3-a]quinoxaline], for which the IC50 or EC50 (agonist or antagonist mode not specified) is 100 to 1000 nM.
Turning to `Cc1nnc2n1-c1c(cc(C(F)F)c(-c3cc(F)cc4c3ccn4S(C)(=O)=O)c1F)NC2(C)C` [Example 298, 7-(Difluoro-methyl)-9-fluoro-8-(6-fluoro-1-methylsulfonyl-1H-indol-4-yl)-1,4,4-trimethyl-5H-[1,2,4]triazolo[4,3-a]quinoxaline], the IC50 or EC50 (agonist or antagonist mode not specified) lay in the range of 1000 to 15000 nM.
To `Cc1nnc2n1-c1c(cc(F)c(-c3cc(F)cc4c3ccn4C)c1C(F)F)NC2(C)C` [Example 521, 9-(Difluoro-methyl)-7-fluoro-8-(6-fluoro-1-methyl-1H-indol-4-yl)-1,4,4-trimethyl-5H-[1,2,4]triazolo [4,3-a]quinoxaline] belongs less than 100 nM.
Turning to `Cc1nnc2n1-c1c(cc(F)c(-c3cc(F)cc4c3ccn4S(=O)(=O)C3CC3)c1F)NC2(C)C` [Example 19, 8-(1-(cyclopropylsulfonyl)-6-fluoro-1H-indol-4-yl)-7,9-difluoro-1,4,4-trimethyl-4,5-dihydro-[1,2,4]triazolo[4,3-a]quinoxaline], the IC50 or EC50 (agonist or antagonist mode not specified) was in the range of 100 to 1000 nM.
Next, `Cc1cc(-c2c(Cl)cc3c(c2C)-n2c(C)nnc2C(C)(C)N3)c2ccn(S(C)(=O)=O)c2c1` [Example 491, 7-Chloro-1,4,4,9-tetramethyl-8-(6-methyl-1-methylsulfonyl-1H-indol-4-yl)-5H-[1,2,4]triazolo[4,3-a] quinoxaline]: less than 100 nM; `Cc1nnc2n1-c1c(cc(F)c(-c3cc(C(F)(F)F)cc4[nH]ccc34)c1F)NC2(C)C` [Example 207, 7,9-Difluoro-1,4,4-trimethyl-8-[6-(trifluoromethyl)-1H-indol-4-yl]-5H-[1,2,4]triazolo[4,3-a]quinoxaline]: 100 to 1000 nM.
`Cc1nnc2n1-c1c(ccc(-c3cccc4c3ccn4S(C)(=O)=O)c1C(F)F)NC2(C)C` [Example 528, 9-(Difluoro-methyl)-1,4,4-trimethyl-8-(1-methylsulfonyl-1H-indol-4-yl)-5H-[1,2,4]triazolo [4,3-a]quinoxaline] gave an IC50 or EC50 (agonist or antagonist mode not specified) of 100 to 1000 nM.
Consider `Cc1nnc2n1-c1c(cc(C(F)F)c(-c3cccc4[nH]ccc34)c1F)NC2(C)C` [Example 343, 7-(Difluoro-methyl)-9-fluoro-8-(1H-indol-4-yl)-1,4,4-trimethyl-5H-[1,2,4]triazolo[4,3-a]quinoxaline], for which the IC50 or EC50 (agonist or antagonist mode not specified) fell in the range of 1000 to 15000 nM.
For the compound `Cc1nnc2n1-c1c(cc(F)c(-c3cccc4c3ccn4S(=O)(=O)C(C)C)c1F)NC2(C)C` [Example 200, 7,9-Difluoro-8-[1-(isopropylsulfonyl)-1H-indol-4-yl]-1,4,4-trimethyl-5H-[1,2,4]triazolo[4,3-a]quinoxaline], the IC50 or EC50 (agonist or antagonist mode not specified) fell in the range of 1000 to 15000 nM.
Compound `Cc1nnc2n1-c1c(cc(F)c(-c3cccc4c3cnn4C)c1F)NC2(C)C` [Example 221, 7,9-Difluoro-1,4,4-trimethyl-8-(1-methyl-1H-indazol-4-yl)-5H-[1,2,4]triazolo[4,3-a]quinoxaline] registered an IC50 or EC50 (agonist or antagonist mode not specified) of 100 to 1000 nM.
For `COc1cc2c(c(C(F)(F)F)c1-c1cc(F)cc3c(C)c[nH]c13)-n1c(C)nnc1C(C)(C)N2` [Example 407, 8-(5-Fluoro-3-methyl-1H-indol-7-yl)-7-methoxy-1,4,4-trimethyl-9-(trifluoromethyl)-5H-[1,2,4]triazolo[4,3-a]quinoxaline], the IC50 or EC50 (agonist or antagonist mode not specified) was less than 100 nM.
Regarding `CCc1nnc2n1-c1c(cc(F)c(-c3cccc4c3ccn4S(C)(=O)=O)c1C)NC2(C)C` [Example 247, 1-Ethyl-7-fluoro-4,4,9-trimethyl-8-(1-methylsulfonyl-1H-indol-4-yl)-5H-[1,2,4]triazolo[4,3-a]quinoxaline], the IC50 or EC50 (agonist or antagonist mode not specified) lay within 1000 to 15000 nM.
Next, `Cc1c(-c2cccc3c2ccn3C2CC2)c(F)cc2c1-n1c(C)nnc1C(C)(C)N2` [Example 27, 8-(1-cyclopropyl-1H-indol-4-yl)-7-fluoro-1,4,4,9-tetramethyl-4,5-dihydro-[1,2,4]triazolo[4,3-a]quinoxaline]: less than 100 nM; `CCc1nnc2n1-c1c(cc(F)c(-c3cc(F)cc4c(C#N)c[nH]c34)c1F)NC2(C)C` [Example 15, 7-(1-ethyl-7,9-difluoro-4,4-dimethyl-4,5-dihydro-[1,2,4]triazolo[4,3-a]quinoxalin-8-yl)-5-fluoro-1H-indole-3-carbonitrile]: 1000 to 15000 nM.
Compound `Cc1nnc2n1-c1c(cc(C(F)F)c(-c3cc(F)cc4c3ccn4CCO)c1F)NC2(C)C` [Example 385, 2-[4-[7-(Difluoro-methyl)-9-fluoro-1,4,4-trimethyl-5H-[1,2,4]triazolo [4,3-a]quinoxalin-8-yl]-6-fluoro-1H-indol-1-yl]-ethanol] registered an IC50 or EC50 (agonist or antagonist mode not specified) of 1000 to 15000 nM.
To `Cc1nnc2n1-c1c(cc(F)c(-c3cccc4c3ccn4S(C)(=O)=O)c1C(F)F)NC2(C)C` [Example 315, 9-(Difluoro-methyl)-7-fluoro-1,4,4-trimethyl-8-(1-methylsulfonyl-1H-indol-4-yl)-5H-[1,2,4]triazolo[4,3-a]quinoxaline] belongs 100 to 1000 nM; to `Cc1nnc2n1-c1c(cc(OC(F)F)c(-c3cccc4c3cnn4C)c1F)NC2(C)C` [Example 273, 7-(Difluoro-methoxy)-9-fluoro-1,4,4-trimethyl-8-(1-methyl-1H-indazol-4-yl)-5H-[1,2,4]triazolo[4,3-a]quinoxaline], 1000 to 15000 nM; to `COc1cc2c(c(F)c1-c1cccc3c1ccn3CC(F)F)-n1c(C)nnc1C(C)(C)N2` [Example 314, 8-[1-(2,2-Difluoro-ethyl)-1H-indol-4-yl]-9-fluoro-7-methoxy-1,4,4-trimethyl-5H-[1,2,4]triazolo[4,3-a]quinoxaline], 1000 to 15000 nM.
`Cc1c(-c2cccc3c2ccn3C2CC2)c(Cl)cc2c1-n1c(C)nnc1C(C)(C)N2` [Example 533, 7-Chloro-8-(1-cyclopropyl-1H-indol-4-yl)-1,4,4,9-tetramethyl-5H-[1,2,4]triazolo[4,3-a] quinoxaline] registered an IC50 or EC50 (agonist or antagonist mode not specified) of less than 100 nM.
Take `Cc1nnc2n1-c1c(cc(F)c(-c3cccc4c3ccn4S(C)(=O)=O)c1F)NC2(C)C` [Example 22, 7,9-difluoro-1,4,4-trimethyl-8-(1-(methylsulfonyl)-1H-indol-4-yl)-4,5-dihydro-[1,2,4]triazolo[4,3-a]quinoxaline]: the IC50 or EC50 (agonist or antagonist mode not specified) was in the range of 100 to 1000 nM.
`Cc1c(-c2cc(F)cc3c2ccn3S(C)(=O)=O)c(C(F)(F)F)cc2c1-n1c(C)nnc1C(C)(C)N2` [Example 83, 8-(6-Fluoro-1-methylsulfonyl-1H-indol-4-yl)-1,4,4,9-tetramethyl-7-(trifluoromethyl)-5H-[1,2,4]triazolo[4,3-a]quinoxaline] yielded an IC50 or EC50 (agonist or antagonist mode not specified) of 1000 to 15000 nM.
`Cc1c(-c2cccc3c(C)n[nH]c23)c(F)cc2c1-n1c(C)nnc1C(C)(C)N2` [Example 361, 7-Fluoro-1,4,4,9-tetramethyl-8-(3-methyl-1H-indazol-7-yl)-5H-[1,2,4]triazolo[4,3-a]quinoxaline] displayed an IC50 or EC50 (agonist or antagonist mode not specified) of 1000 to 15000 nM.
The compound `COc1cc2c(c(C(F)(F)F)c1-c1cc(F)cc3c1ccn3S(C)(=O)=O)-n1c(C)nnc1C(C)(C)N2` [Example 329, 8-(6-Fluoro-1-methylsulfonyl-1H-indol-4-yl)-7-methoxy-1,4,4-trimethyl-9-(trifluoromethyl)-5H-[1,2,4]triazolo[4,3-a]quinoxaline] came in with an IC50 or EC50 (agonist or antagonist mode not specified) of 100 to 1000 nM.
Turning to `Cc1nnc2n1-c1c(cc(F)c(-c3cc(F)cc4c3ccn4C)c1C(F)(F)F)NC2(C)C` [Example 532, 7-Fluoro-8-(6-fluoro-1-methyl-1H-indol-4-yl)-1,4,4-trimethyl-9-(trifluoromethyl)-5H-[1,2,4] triazolo[4,3-a]quinoxaline], the IC50 or EC50 (agonist or antagonist mode not specified) was less than 100 nM.
To `Cc1nnc2n1-c1c(cc(F)c(-c3ccc(F)c4[nH]ccc34)c1F)NC2(C)C` [Example 497, 7,9-Difluoro-8-(7-fluoro-1H-indol-4-yl)-1,4,4-trimethyl-5H-[1,2,4]triazolo[4,3-a]quinoxaline] belongs 100 to 1000 nM; to `COCCn1ccc2c(-c3c(F)cc4c(c3OC)-n3c(C)nnc3C(C)(C)N4)cc(F)cc21` [Example 351, 7-Fluoro-8-[6-fluoro-1-(2-methoxy-ethyl)-1H-indol-4-yl]-9-methoxy-1,4,4-trimethyl-5H-[1,2,4]triazolo [4,3-a]quinoxaline], less than 100 nM.
Compound `COCCn1ccc2c(-c3c(F)cc4c(c3F)-n3c(C)nnc3C(C)(C)N4)cccc21` [Example 204, 7,9-Difluoro-8-[1-(2-methoxy-ethyl)-1H-indol-4-yl]-1,4,4-trimethyl-5H-[1,2,4]triazolo[4,3-a]quinoxaline] returned an IC50 or EC50 (agonist or antagonist mode not specified) of 100 to 1000 nM.
